US20220144850A1, “INDOLO HEPTAMYL OXIME ANALOGUE AS PARP INHIBITOR” (Chia Tai Tianqing Pharmaceutical Group Co., Ltd., priority 2019, published 2022)

Tests used:
PARP1 = biological target: T1, PARP1 (Homo sapiens, UniProt P09874); experiment: PARP-1 enzymatic experiment (HT Universal Chemiluminescent PARP Assay kit); type: biochemical; conditions: chemiluminescence
T1 construct: purchased TREVIGEN
Procedure: Experimental Example 1: PARP-1 Enzymatic Experiment
Experimental materials: test compounds; HT Universal Chemiluminescent PARP Assay kit (purchased from TREVIGEN); PBS (purchased from Wisent); Triton X-100 (purchased from Macklin); Envision multi-marker analyzer (PerkinElmer).
(I) Preparation of Reagents:
• 1. Washing solution: Triton X-100 was added to 1-fold PBS, and the final concentration of Triton X-100 was 0.1%. • 2. 1-fold PARP buffer: the 20-fold PARP buffer in the kit was subjected to 20-fold dilution with water to prepare a 1-fold PARP buffer. This buffer was used to prepare the compound, enzyme solution and substrate solution. • 3. 1-fold Strep-Diluent solution: the 10-fold Strep-diluent in the kit was subjected to 10-fold dilution with water to prepare a 1-fold Strep-diluent solution.
(II) Preparation of Test Compounds:
Test compounds were serially 5-fold diluted to the 8th concentration with a multichannel pipette, i.e. from 200 μM to 2.56 nM, with the DMSO concentration being 100%. 2 μL of each of the inhibitors at various concentration gradients was added to a compound intermediate plate, and 38 μL of the 1-fold PARP buffer was then added; the two were mixed well for use, and the DMSO concentration was 5%.
(III) Experimental Method:
• a) The 1-fold PARP buffer was added to a test plate at 50 μL per well and incubated at 25° C. for 30 min. • b) After the incubation was completed, the liquid in the test plate was discarded, and each of the compounds at various concentration gradients was pipetted from the compound intermediate plate and added into the test plate at 10 μL per well. A duplicate-well experiment was performed. • c) The test plate was added with the enzyme solution (0.5 IU) at 15 μL per well. The compound and enzyme were incubated together at 25° C. for 10 min. • d) After the incubation was completed, 25 μL of the 1-fold PARP Cocktail (comprising 2.5 μL of 10-fold PARP Cocktail, 2.5 μL of 10-fold Activated DNA and 20 μL of 1-fold PARP buffer) was added to each well of the test plate. The test plate was incubated at 25° C. for 1 h. The final concentration of the compound was 2 μM to 0.0256 nM, and the DMSO concentration was […]. • e) After the incubation was completed, the test plate was washed twice with 200 μL of washing solution per well and then washed twice with 200 μL of PBS per well. • f) Strep-HRP in the kit was subjected to 500-fold dilution with the 1-fold Strep-Diluent solution, added to the test plate at 50 μL per well, and then incubated at 25° C. for 1 h. • g) After the incubation was completed, the test plate was washed twice with 200 μL of washing solution per well and then washed twice with 200 μL of PBS per well.
PeroxyGlow A and B in the kit were mixed at ratio of 1:1, and the mixed solution was added to the test plate at 100 μL per well. Chemiluminescence was immediately read using a PerkinElmer Envision multi-marker analyzer with an integration time of 0.5 s.
Data analysis: the original data was converted to inhibition using the equation (sample−Min)/(Max−Min)×[…], and the IC50 value was then curve filled using four parameters (obtained from the “log(inhibitor) vs. response-variable slope” model in GraphPad Prism).

[1] = tested on: BRCA1-mutated MDA-MB-436 cells; experiment: Anti-proliferation experiment on MDA-MB-436 CTG cells; type: cell-based, human; conditions: 7 days incubation, CellTiter-Glo
Procedure: Experimental Example 2: Anti-Proliferation Experiment on MDA-MB-436 CTG Cells
Experimental materials: test compounds; RPMI-1640 medium; fetal bovine serum; penicillin/streptomycin antibiotic; MDA-MB-436 cell line; Envision multi-marker analyzer (PerkinElmer).
MDA-MB-436 cells were seeded in a white 96-well plate by adding 80 μL of cell suspension (containing 3000 MDA-MB-436 cells) to each well. The cell plate was incubated in a CO2 incubator overnight.
(§1) Test compounds were serially 5-fold diluted to the 8th concentration with a multichannel pipette, i.e. from 2 mM to 26 nM, and a duplicate well experiment was performed. 78 μL of medium was added to a intermediate plate, 2 μL of each of serially diluted compounds was transferred to corresponding wells of the intermediate plate, and after mixing, the mixture was transferred to the cell plate at 20 μL per well. The cell plate was incubated in a CO2 incubator for 7 days. Another cell plate was provided for reading signal values on the day of compound addition and these signal values were used as Max values in data analysis. Promega CellTiter-Glo was added to this cell plate at 25 μL per well and the luminescence signals were stabilized by incubation for 10 min at room temperature. Readings were taken using a PerkinElmer Envision multi-marker analyzer.
(§2) Promega CellTiter-Glo was added to the cell plate at 25 μL per well and the luminescence signals were stabilized by incubation for 10 min at room temperature. Readings were taken using a PerkinElmer Envision multi-marker analyzer.
2. Data analysis: the original data was converted to inhibition using the equation (sample−Min)/(Max−Min)×100%, and the IC50 value was then curve fitted using four parameters (obtained from the “log(inhibitor) vs. response-variable slope” model in GraphPad Prism). Table 2 provides the inhibitory activity of the compounds disclosed herein against MDA-MB-436 cell proliferation.

[2] = Single-dose pharmacokinetic study in mice; type: in vivo; conditions: male C57BL/6 mice, IV: 1 mg/kg PO: 5 mg/kg
Excerpt: Experimental Example 8: Single-Dose Pharmacokinetic Study in Mice
Experimental objective: to evaluate the pharmacokinetic behavior by using male C57BL/6 mice as test animals and determining the drug concentrations of the compounds in the plasma, liver and cerebrospinal fluid after single-dose administration.
Experimental method: healthy adult male C57BL/6 mice were selected for intragastric administration. A candidate compound was mixed with an appropriate amount of 10% DMSO/90% (20% hydroxypropyl-β-cyclodextrin), vortexed and sonicated to prepare a 0.5 mg/mL clear solution for later use. After the mice were administered intravenously at 1 mg/kg and orally at 5 mg/kg, whole blood was collected at certain time points, and plasma was separated, and liver and cerebrospinal fluid were collected. After pretreatment of the samples, the drug concentration was measured by LC-MS/MS, and pharmacokinetic parameters were calculated using Phoenix WinNonlin software.

[3] = tested on: BRCA-wild type MDA-MB-231 cells; experiment: Anti-proliferation experiment on MDA-MB-231 CTG cells; type: cell-based; conditions: Homo sapiens, MDA-MB-231, 72 h; 3 days incubation, CellTiter-Glo
Procedure: Experimental Example 3: Anti-Proliferation Experiment on MDA-MB-231 CTG Cells
Experimental materials: test compounds; R DMEM medium; fetal bovine serum; penicillin/streptomycin antibiotic; MDA-MB-231 cell line; Envision multi-label analyzer.
MDA-MB-231 cells were seeded in a white 96-well plate by adding 80 μL of cell suspension (containing 5000 MDA-MB-231 cells) to each well. The cell plate was incubated in a CO2 incubator overnight.
as §1, with “Eight concentration points were set for each compound, test compounds” for “Test compounds”, “serially 3-fold” for “serially 5-fold”, “to 920” for “to 26”, “for 3” for “for 7”
as §2
Data analysis: the original data was converted to inhibition using the equation (sample−Min)/(Max−Min)×100%, and the IC50 value was then curve fitted using four parameters (obtained from the “log(inhibitor) vs. response-variable slope” model in GraphPad Prism). Table 1 provides the inhibitory activity of the compounds disclosed herein against MDA-MB-231 cell proliferation.

[4] = Homo sapiens, MDA-MB-436, 168 h

T1 sequence (P09874 whole entry): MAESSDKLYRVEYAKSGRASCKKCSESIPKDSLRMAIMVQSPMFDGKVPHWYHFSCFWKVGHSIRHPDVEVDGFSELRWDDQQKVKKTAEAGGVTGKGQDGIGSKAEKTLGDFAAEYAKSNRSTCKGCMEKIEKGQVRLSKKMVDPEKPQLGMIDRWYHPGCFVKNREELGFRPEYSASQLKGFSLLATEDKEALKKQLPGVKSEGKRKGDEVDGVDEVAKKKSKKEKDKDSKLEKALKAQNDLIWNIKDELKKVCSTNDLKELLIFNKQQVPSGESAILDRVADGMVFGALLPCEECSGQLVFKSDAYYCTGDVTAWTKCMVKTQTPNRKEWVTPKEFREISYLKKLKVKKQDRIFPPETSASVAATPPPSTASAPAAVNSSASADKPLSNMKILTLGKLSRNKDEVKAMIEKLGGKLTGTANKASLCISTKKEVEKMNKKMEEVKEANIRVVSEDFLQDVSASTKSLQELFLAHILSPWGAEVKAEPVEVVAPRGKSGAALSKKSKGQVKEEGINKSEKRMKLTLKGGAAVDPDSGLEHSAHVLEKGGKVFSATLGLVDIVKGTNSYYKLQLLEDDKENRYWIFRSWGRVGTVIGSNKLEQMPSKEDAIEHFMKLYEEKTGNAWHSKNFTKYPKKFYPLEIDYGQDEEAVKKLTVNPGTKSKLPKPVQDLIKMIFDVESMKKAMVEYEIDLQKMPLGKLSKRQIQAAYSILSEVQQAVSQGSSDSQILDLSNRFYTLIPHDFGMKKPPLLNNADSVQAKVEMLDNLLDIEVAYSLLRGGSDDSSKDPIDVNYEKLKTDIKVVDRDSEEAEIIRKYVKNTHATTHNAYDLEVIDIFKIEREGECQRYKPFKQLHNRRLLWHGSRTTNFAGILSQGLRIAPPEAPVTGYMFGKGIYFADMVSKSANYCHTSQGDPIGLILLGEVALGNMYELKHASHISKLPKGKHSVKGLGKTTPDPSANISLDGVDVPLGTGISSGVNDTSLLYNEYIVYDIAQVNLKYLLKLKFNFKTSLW

| Structure (SMILES) | IC50 (PARP1) | IC50 [1] | IC50 [1, 4] | other results |
| --- | --- | --- | --- | --- |
| CC1(c2ccc(-c3[nH]c4cc(F)cc5c4c3CONC5=O)cc2)CCCN1 (centres unmarked) [Example 25_B] | 2.8 nM | 20.7 nM |  |  |
| O=C1NOCc2c(-c3ccc(C4CCCN4)cc3F)[nH]c3cc(F)cc1c23 (single isomer, unassigned) [Example 22_A] | 4.9 nM | 125 nM |  |  |
| O=C1NOCc2c(-c3ccc(C4CCCN4)nc3)[nH]c3cccc1c23 (centres unmarked) [Example 16_B] | 2.8 nM |  | 44.6 nM |  |
| O=C1NOCc2c(-c3ccc(C4CCCNC4)cc3F)[nH]c3cc(F)cc1c23 (racemic) [Example 10] |  |  | 27 nM |  |
| [2H]C1([2H])ONC(=O)c2cccc3[nH]c(-c4ccc(C5(C)CCCN5)c(F)c4)c1c23 (centres unmarked) [Example 23_A] | 3.7 nM |  | 30.9 nM |  |
| O=C1NOCc2c(-c3ccc(C4CCCN4)c(F)c3)[nH]c3cc(F)cc1c23 (single isomer, unassigned) [Example 28_A] | 2.9 nM |  | 73 nM |  |
| [2H]C1([2H])ONC(=O)c2cccc3[nH]c(-c4ccc(C5CCCN5)c(F)c4)c1c23 (centres unmarked) [Example 21_B] | 5.6 nM |  | 69.8 nM |  |
| O=C1NOCc2c(-c3ccc(C4CCCN4CCO)c(F)c3)[nH]c3cccc1c23 (centres unmarked) [Example 20_B] | 3.8 nM |  | 61.6 nM |  |
| CNCc1ccc(-c2[nH]c3cc(F)cc4c3c2CCNC4=O)cc1 [Rucaparib, reference compound] |  |  |  | Maximum concentration [2]: 24.8 nM; bioavailability ([2]; mouse, plasma): 14.6%; clearance ([2]; mouse, plasma): 99.9 mL/min/kg; Vd ([2]; mouse, plasma, read-out: Apparent volume of distribution): 13.1 L/kg |
| O=C1NOCc2c(-c3ccc(C4=CNCC4)c(F)c3)[nH]c3cccc1c23 [Example 18] |  |  | 134 nM |  |
| [2H]C1(c2ccc(-c3[nH]c4cccc5c4c3CONC5=O)cc2)CCCN1 (centres unmarked) [Example 8_A] | 2.7 nM |  | 20.8 nM |  |
| O=C1NOCc2c(-c3ccc(C4CCCN4)c(F)c3)[nH]c3cc(F)cc1c23 (single isomer, unassigned) [Example 28_B] | 3.4 nM | 50 nM |  |  |
| O=C1NOCc2c(-c3ccc(C4CCCN4)cc3)[nH]c3cc(F)cc1c23 (single isomer, unassigned) [Example 24_B] | 2.5 nM | 4.4 nM |  |  |
| CC1(c2ccc(-c3[nH]c4cc(F)cc5c4c3CONC5=O)cc2F)CCCN1 (single isomer, unassigned) [Example 26_B] | 3.6 nM | 29.3 nM |  |  |
| [2H]C1(c2ccc(-c3[nH]c4cccc5c4c3CONC5=O)cc2F)CCCN1 (centres unmarked) [Example 15_B] | 7.1 nM |  | 89.6 nM |  |
| O=C1NOCc2c(-c3ccc(C4(F)CCCNC4)c(F)c3)[nH]c3cccc1c23 (centres unmarked) [Example 19_B] | 3.5 nM |  | 24 nM |  |
| O=C1NOCc2c(-c3ccc(C4CCCN4)cc3F)[nH]c3cc(F)cc1c23 (single isomer, unassigned) [Example 22_B] | 4.2 nM | 61.6 nM |  | IC50 [3]: > 10000 nM |
